Experimental data taken from patent US6887878B2, “KMST isoeugenol derivatives and pharmaceutical activity” (Ing-Jun Chen, priority 2003, dated 2005).

Experiments:
[1] = tested on: serotonin-induced human platelet aggregation; experiment: serotonin-induced human platelet aggregation; assay type: cell-based; details: serotonin 5 μM, PRP; read-out: IC50 serotonin-induced human platelet aggregation
Method: Venous blood from human volunteer donors was collected in 10 ml Monovette containing 1 ml citrate solution (0.106M trisodium citrate; Sarstedt, Nümbrecht, Germany) and centrifuged (400 g, 10 min, 20° C.). […] After centrifugation (10 min, 2000 g, 20° C.), the platelet pellet was resuspended in wishing buffer (113 mM NaCl, 4 mM Na2HPO4, 24 mM NaH2PO4, 4 mM KCl, 0.2 mM EGTA(Ethylene glycol-bis-(2-aminoethyl ether) N,N,N′-tetraacetic acid), 0.1% (wt/vol) glucose, pH 6.0) and recentrifuged (10 min, 2000 g, 20° C.). The washed platelets were resuspended in incubation buffer (134 mM NaCl, 12 mM NaHCO3, 2.9 mM KCl, 0.34 mM NaH2PO4, 5 mM HEPES (N-(2-hydroxyethyl) piperazine-N′-(2-ethanesulfonic acid)), 5 mM glucose, pH7.4), cells were counted in a Sysmex hematology analyzer (Sysmex, CDA-500, Japan) and adjusted to a final concentration of 2×10^8 platelets/ml.
The aggregation of the platelets in platelet-rich plasma (PRP) was measured as a change in light absorbance by a Payton dual-channel aggregometer (NBS, Hema tracer, Japan). PRP (240 μL) was stirred (700 rpm) at 37° C. for 1 min, and 5 μL epinephrine (final concentration 5 μM), serotonin (final concentration 5 μM) was added. After which the rate of primary aggregation (1/min) and maximum aggregation (%) at 5 min were recorded. To study the effects of compounds on epinephrine or serotonin-induced aggregation, PRP was incubated with 5 μL of compounds at various concentrations for 1 min before epinephrine or serotonin was added. IC50 values given were calculated from the secondary aggregation data.

5-HT2A receptor = 5-HT2A receptor (Rattus norvegicus, UniProt P14842); experiment: [3H]ketanserin receptor binding in rat cortex; parameters: from tissue; host or cells: Wistar rat cortex membranes; species or system Wistar rat
Method: (§1) The homogenate was pressure filtered through muslin. Filtrate was centrifuged at 1000 g for 10 min. […] Protein content was determined by Bradford's method.

[2] = LPS-induced blood glucose changes; assay type: in vivo, rat
Method: (§2) In brief, Wistar rats weighing 250-300 g were anesthetized with pentobarbital sodium (50 mg kg^−1, i.p.). Following tracheal cannulation, systemic arterial BP and HR were recorded from the femoral artery by a pressure transducer (model P10EZ; Spectramed, Oxnard, Calif., U.S.A.) connected to a recorder (GOULD, Valley View, Ohio, Model P50). Body temperature was maintained at 37° C. by an electric heating pad. A femoral vein was cannulated for intravenous injection of drugs and LPS (10 mg kg^−1).
Blood was collected from venous cannula, injected into ice-cold heparinized Eppendorf tubes and centrifuged at 1500 rpm for 10 min at 4° C. Plasma supernatant was stored at −70° C. until analyzed. Solid phase enzyme immunoassay that specifically detects murine IL-1β, IL-6, IFN-γ and TNF-α was used with a detection limit of >10 pg/ml (Endogen, U.S.A). Pre-treatment with KMST and other agents was performed 15 minutes before intravenous injection of LPS. Blood was collected from venous cannula. Blood glucose was measured with a glucose test strip (Glucotide, Bayer, U.S.A) at 1, 3 and 5 hours.

anesthetized rats [3] = experiment: LPS-induced hypotension; assay type: in vivo, Wistar rat; details: pretreatment, intravenous LPS
Method: as §2

β2 receptors = target: T1, β2 receptors (Rattus norvegicus, UniProt P10608); experiment: [3H]CGP-12177 receptor binding in rat lung; parameters: species or system Wistar rat; details: [3H]CGP-12177, rat lung
T1 construct: from tissue; host or cells: Wistar rat lung membranes
Method: as §1

α2-adrenergic receptor = experiment: clonidine-induced contraction in isolated rat thoracic aorta (pA2); parameters: species or system Wistar rat; details: Schild plot, mean ± SEM of eight, listed as KMST
Method: Clonidine, noradrenaline and serotonin (10^−8˜10^−4 M) were added to the bath to induce contractions after pretreatment with KMST for 15 min.

5-HT re-uptake = target: T2, 5-HT re-uptake (Rattus norvegicus, UniProt P31652); experiment: 5-HT re-uptake in cerebral cortex synaptosomes; assay type: biochemical, Wistar rat; details: read-out: IC50 of 5-HT uptake inhibition
T2 construct: the cerebral cortex or striatum was dissected and crude synaptosomes were prepared; from tissue; host or cells: crude synaptosomes of Wistar rat cerebral cortex
Method: Wistar rats weighting 150-200 g were decapitated, the cerebral cortex or striatum was dissected and crude synaptosomes were prepared. […] Uptake was initiated by the addition of 50 μl of [^3H] […] Saline was added to the incubation mixture, which was then filtered through a Whatman GF/B glass filter under reduced pressure. To determine nonspecific uptake, incubation was performed at 0° C.

5-HT1B = target: T3, 5-HT1B (Rattus norvegicus, UniProt P28564); experiment: [3H]GR125743 receptor binding in rat cortex; parameters: species or system Wistar rat; details: [3H]GR125743 (5-HT1B/1D), rat cortex; read-out: Ki 5-HT1B
T3 construct: from tissue; host or cells: Wistar rat cortex membranes
Method: as §1

α1 receptors = experiment: [3H]prazosin receptor binding in rat cortex; parameters: species or system Wistar rat
Method: as §1

anesthetized rats [4] = experiment: intra-cisternal injection and NTS microinjection, BP and HR; assay type: in vivo, rat
Method: Intra-cisternal injections of KMST (0.3, 0.03 μmol), yohimbine [0.03 μmol), and clonidine (38 pmol), were performed in rats as described by Duan et al (1987). Briefly, rats weighing 250-300 g were anaesthetized with pentobarbital sodium (50 mg kg^−1, i.p.) and mounted in a David-Kopf stereotaxic instrument (Yeh J L. et al., Brain. Res. Bull., 30:641-648, 1993). The calvarium was exposed and a 1 mm diameter trephine hole was drilled 1.8 mm lateral to the coronary and 1.5 mm posterior to the sagittal sutures. A cannula (0.7 mm O.D.) connected to a Hamilton syringe (RN-705, 5051) by PE-50 was advanced 4.7 mm into the brain using the electrode carrier.
Rats were anesthetized and placed in a David-Kopf stereotaxic instrument. The cerebellum was exposed after removing the skin and occipital bone. The NTS coordinates were (reference to lambda) P 5-6 mm, L/R 0.5-1 mm, depth 6-7.5 mm (Wu et al., 1994). NTS injection sites were confirmed by decreasing BP and HR following micro-injection of 1% L-glutamate. […] Pre-treatment with clonidine was performed 15 min before administration of test agents. At the end of experiments, the animals were sacrificed. The brain was removed and sectioned for histological confirmation of the drug application site.

T1 sequence (P10608 whole entry): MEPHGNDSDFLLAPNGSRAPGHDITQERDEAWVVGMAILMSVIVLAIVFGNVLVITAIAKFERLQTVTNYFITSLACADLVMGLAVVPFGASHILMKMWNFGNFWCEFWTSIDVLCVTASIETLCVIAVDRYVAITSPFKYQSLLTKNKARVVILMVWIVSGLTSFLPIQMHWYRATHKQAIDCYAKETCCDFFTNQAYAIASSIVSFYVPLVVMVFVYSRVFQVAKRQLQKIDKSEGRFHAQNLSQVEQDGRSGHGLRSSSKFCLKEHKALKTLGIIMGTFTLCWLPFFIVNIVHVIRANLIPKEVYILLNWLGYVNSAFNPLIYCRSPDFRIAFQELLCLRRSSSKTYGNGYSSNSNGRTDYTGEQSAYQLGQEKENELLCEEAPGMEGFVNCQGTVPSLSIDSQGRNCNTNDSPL
T3 sequence (P28564 whole entry): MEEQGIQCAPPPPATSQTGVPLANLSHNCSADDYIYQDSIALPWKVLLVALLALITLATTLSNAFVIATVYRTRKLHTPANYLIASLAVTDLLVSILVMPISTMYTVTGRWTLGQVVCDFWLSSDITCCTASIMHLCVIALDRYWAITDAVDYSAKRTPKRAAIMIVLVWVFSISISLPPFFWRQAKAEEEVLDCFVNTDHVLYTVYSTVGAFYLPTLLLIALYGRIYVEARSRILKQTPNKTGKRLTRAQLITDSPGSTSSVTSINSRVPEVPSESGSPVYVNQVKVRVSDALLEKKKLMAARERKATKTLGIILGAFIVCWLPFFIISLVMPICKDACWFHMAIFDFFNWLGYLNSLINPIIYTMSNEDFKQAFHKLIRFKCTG
Chain of 5-HT2A receptor (P14842 whole entry): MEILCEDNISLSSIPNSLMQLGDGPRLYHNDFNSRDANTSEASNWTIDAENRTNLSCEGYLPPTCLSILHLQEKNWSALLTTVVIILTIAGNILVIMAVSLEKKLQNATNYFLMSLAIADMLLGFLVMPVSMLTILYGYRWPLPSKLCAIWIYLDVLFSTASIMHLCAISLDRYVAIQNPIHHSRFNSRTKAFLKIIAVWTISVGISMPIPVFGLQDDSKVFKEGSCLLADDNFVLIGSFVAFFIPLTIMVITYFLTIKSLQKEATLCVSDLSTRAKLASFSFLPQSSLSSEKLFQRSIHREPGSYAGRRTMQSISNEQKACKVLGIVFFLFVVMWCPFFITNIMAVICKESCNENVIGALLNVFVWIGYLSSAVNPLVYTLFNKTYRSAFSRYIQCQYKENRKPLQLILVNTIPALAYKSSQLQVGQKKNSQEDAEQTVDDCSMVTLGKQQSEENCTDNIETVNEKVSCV
T2 sequence (P31652 whole entry): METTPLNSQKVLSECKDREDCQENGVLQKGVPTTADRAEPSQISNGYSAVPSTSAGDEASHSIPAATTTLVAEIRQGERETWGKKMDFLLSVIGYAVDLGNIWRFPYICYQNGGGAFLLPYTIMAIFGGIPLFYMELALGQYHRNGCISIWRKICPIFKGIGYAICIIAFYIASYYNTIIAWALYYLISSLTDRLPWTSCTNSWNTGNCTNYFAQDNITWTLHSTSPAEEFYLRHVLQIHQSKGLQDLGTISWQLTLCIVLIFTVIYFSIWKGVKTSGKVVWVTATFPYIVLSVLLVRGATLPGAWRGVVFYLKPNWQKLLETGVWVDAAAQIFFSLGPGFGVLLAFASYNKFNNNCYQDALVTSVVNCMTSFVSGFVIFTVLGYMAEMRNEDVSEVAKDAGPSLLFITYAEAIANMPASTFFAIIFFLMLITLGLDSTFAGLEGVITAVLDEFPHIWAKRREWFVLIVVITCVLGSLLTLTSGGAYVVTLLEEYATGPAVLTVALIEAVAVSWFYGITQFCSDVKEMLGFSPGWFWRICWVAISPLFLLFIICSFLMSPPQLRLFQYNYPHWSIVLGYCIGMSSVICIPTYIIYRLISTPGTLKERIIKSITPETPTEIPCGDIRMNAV

With `CC=Cc1ccc(OCC(O)CN2CCN(c3cccc(Cl)c3)CC2)c(OC)c1` (centres unmarked) [Compound 1] the IC50 [1] was 3.63 nM, the Ki (5-HT2A receptor) was 33.3 nM and the LPS-induced early hyperglycemia ([2]; at 1 and 3 hours) was “inhibited”. The LPS-induced hypoglycemia ([2]; at 5 hours) was “did not affect”, the “aortic hyporeactivity and second prolonged hypotensive reaction induced by LPS” value (anesthetized rats [3]) was “inhibited” and the Ki (β2 receptors) was over 10000 nM. For the same molecule, the “α2 pA2 value” (α2-adrenergic receptor) was 7.40±0.38, the IC50 (5-HT re-uptake) was 34300 nM and the Ki (5-HT1B) was 670 nM. For the same molecule, the Ki (α1 receptors) was 142 nM, the “BP and HR after intra-cisternal injection and NTS microinjection” value (anesthetized rats [4]; central administration) was “increased BP and HR” and the “clonidine-induced hypotension and bradycardia” value (anesthetized rats [4]; high dose (0.3 μmol)) was “reduced both”. For the same molecule, the clonidine-induced bradycardia (anesthetized rats [4]; low dose (0.03 μmol)) was “did not inhibit” and the clonidine-induced hypotension (anesthetized rats [4]; low dose (0.03 μmol)) was “reduced”.
